Measurements as given in patent publication US20230295118A1 (EnhancedBio Inc., priority 2022, published 2023).
Like-named read-outs stand apart in the source and are kept apart here.

Assays:
Format in all cases: cell-based
[1] = tested on: mantle cell lymphoma cell (Mino or JeKo-1); test: Antiproliferative effect, MTS cell viability assay
How it was run: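 MTS read-out (formazan absorbance at 490 nm) after 72 h exposure of Mino cells to 0–1 μM compound (0.0001, 0.001, 0.01, 0.1, 1 μM). Palbociclib and abemaciclib served as positive controls.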

[2] = target: T1, CDK4 (Homo sapiens, UniProt P11802); test: CDK4 degradation (DC50, Dmax)
T1 construct: endogenous in cells

[3] = target: T2, CDK6 (Homo sapiens, UniProt Q00534); test: CDK6 degradation (DC50, Dmax)
T2 construct: endogenous in cells

[4] = tested on: CDK4/6; test: CDK4/6 degradation in A375 melanoma cells (FIG. 1); settings: result in words
[5] = 72 h, mantle cell lymphoma cell (Mino or JeKo-1), MTS assay, read-out: IC50 (anti-proliferation)

T1 sequence (P11802 whole entry): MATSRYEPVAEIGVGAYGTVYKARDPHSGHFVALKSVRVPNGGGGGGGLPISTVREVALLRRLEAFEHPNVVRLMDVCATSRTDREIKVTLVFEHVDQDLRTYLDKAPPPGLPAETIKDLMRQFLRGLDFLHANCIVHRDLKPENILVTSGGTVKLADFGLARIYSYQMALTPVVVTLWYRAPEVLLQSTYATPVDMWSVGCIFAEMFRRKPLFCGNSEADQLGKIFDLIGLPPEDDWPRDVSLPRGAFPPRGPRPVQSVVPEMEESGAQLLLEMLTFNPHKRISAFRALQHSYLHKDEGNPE
T2 sequence (Q00534 whole entry): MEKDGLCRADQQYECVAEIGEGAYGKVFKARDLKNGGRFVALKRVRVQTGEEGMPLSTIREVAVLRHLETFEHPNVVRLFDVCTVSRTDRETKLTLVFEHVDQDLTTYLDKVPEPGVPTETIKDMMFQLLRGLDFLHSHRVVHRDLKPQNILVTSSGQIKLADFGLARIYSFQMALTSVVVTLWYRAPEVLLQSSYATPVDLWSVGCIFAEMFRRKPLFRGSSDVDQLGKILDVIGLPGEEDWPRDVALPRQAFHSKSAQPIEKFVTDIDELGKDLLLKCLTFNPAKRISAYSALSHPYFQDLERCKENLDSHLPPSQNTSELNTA

Which IC50 [1, 5] does the source give for `CC(=O)c1c(C)c2cnc(Nc3ccc(N4CCN(CCCNc5ccc6c(c5)C(=O)N(C5CCC(=O)NC5=O)C6=O)CC4)cn3)nc2n(C2CCCC2)c1=O` (stereo not shown) [Compound 49, 5-((3-(4-(6-((6-acetyl-8-cyclopentyl-5-methyl-7-oxo-7,8-dihydropyrido[2,3-d]pyrimidin-2-yl)amino)pyridin-3-yl)piperazin-1-yl)propyl)amino)-2-(2,6-dioxopiperidin-3-yl) isoindoline-1,3-dione] here?
The IC50 was less than 50 nM.

And the “inhibition of cell proliferation of Mino cells” value ([1]; Mino cells; 0-1 μM; 72 h; result in words)?
Its value is “dose-dependent inhibition of cell proliferation”.

And the DC50 [2]?
Its DC50 is less than 50 nM.

And the Dmax [2]?
The Dmax was greater than 80%.

What about the DC50 [3] of the same molecule?
Its DC50 is less than 50 nM.

And the Dmax [3]?
The Dmax was greater than 80%.

And the CDK4/6 degradation [4]?
The CDK4/6 degradation was “dose-dependent CDK4/6 degradation”.

What does the source list for `Cc1nc2c(F)cc(-c3nc(Nc4ccc(CC5CCN(CC6CCN(c7ccc8c(c7)C(=O)N(C7CCC(=O)NC7=O)C8=O)CC6)CC5)cn4)ncc3F)cc2n1C(C)C` (stereo not shown) [Compound 157, 2-(2,6-dioxopiperidin-3-yl)-5-(4-((4-((6-((5-fluoro-4-(4-fluoro-1-isopropyl-2-methyl-1H-benzo[d]imidazol-6-yl)pyrimidin-2-yl)amino)pyridin-3-yl)methyl)piperidin-1-yl)methyl)piperidin-1-yl)isoindoline-1,3-dione]?
IC50 [1, 5]: < 50 nM; DC50 [2]: < 50 nM; Dmax [2]: > 80%; DC50 [3]: < 50 nM; Dmax [3]: > 80%

How did the IC50 [1, 5] turn out when `Cc1nc2c(F)cc(-c3nc(Nc4ccc(CC5CCN(CC6CCN(c7ccc8c(c7)CN(C7CCC(=O)NC7=O)C8=O)CC6)CC5)cn4)ncc3F)cc2n1C(C)C` (stereo not shown) [Compound 158, 3-(5-(4-((4-((6-((5-fluoro-4-(4-fluoro-1-isopropyl-2-methyl-1H-benzo[d]imidazol-6-yl)pyrimidin-2-yi)amino)pyridin-3-yl)methyl)piperidin-1-yl)methyl)piperidin-1-yl)-1-oxoisoindolin-2-yl)piperidine-2,6-dione] was run?
Its IC50 is less than 50 nM.

What about the DC50 [2] of the same molecule?
Its DC50 is 50 to 200 nM.

And the Dmax [2]?
The Dmax was greater than 80%.

What about the DC50 [3] of the same molecule?
Its DC50 is 50 to 200 nM.

And the Dmax [3]?
Its Dmax is greater than 80%.

For `Cc1nc2c(F)cc(-c3nc(Nc4ccc(CC5CCN(CC6CCN(c7ccc(C(=O)NC8CCC(=O)NC8=O)cc7)CC6)CC5)cn4)ncc3F)cc2n1C(C)C` (stereo not shown) [Compound 159, N-(2,6-dioxopiperidin-3-yl)-4-(4-((4-((6-((5-fluoro-4-(4-fluoro-1-isopropyl-2-methyl-1H-benzo[d]imidazol-6-yl)pyrimidin-2-yl)amino)pyridin-3-yl)methyl)piperidin-1-yl)methyl)piperidin-1-yl)benzamide], which IC50 [1, 5] is on record?
The IC50 was less than 50 nM.

And the DC50 [2]?
Its DC50 is less than 50 nM.

What about the Dmax [2] of the same molecule?
The Dmax was greater than 80%.

And the DC50 [3]?
Its DC50 is less than 50 nM.

What about the Dmax [3] of the same molecule?
The Dmax was greater than 80%.

`Cc1nc2c(F)cc(-c3nc(Nc4ccc(CC5CCN(CC6CCN(c7ccc(NC8CCC(=O)NC8=O)cc7)CC6)CC5)cn4)ncc3F)cc2n1C(C)C` (stereo not shown) [Compound 160, 3-((4-(4-((4-((6-((5-fluoro-4-(4-fluoro-1-isopropyl-2-methyl-1H-benzo[d]imidazol-6-yl)pyrimidin-2-yl)amino)pyridin-3-yl)methyl)piperidin-1-yl)methyl)piperidin-1-yl)phenyl)amino) piperidine-2,6-dione] was tested. Which IC50 [1, 5] did it give?
The IC50 was less than 50 nM.

What about the DC50 [2] of the same molecule?
Its DC50 is less than 50 nM.

And the Dmax [2]?
Its Dmax is greater than 80%.

What about the DC50 [3] of the same molecule?
Its DC50 is less than 50 nM.

What about the Dmax [3] of the same molecule?
The Dmax was greater than 80%.

What does the source list for `Cc1nc2c(F)cc(-c3nc(Nc4ccc(CC5CCN(C(=O)C6CCN(c7ccc8c(c7)C(=O)N(C7CCC(=O)NC7=O)C8=O)CC6)CC5)cn4)ncc3F)cc2n1C(C)C` (stereo not shown) [Compound 161, 2-(2,6-dioxopiperidin-3-yl)-5-(4-(4-((6-((5-fluoro-4-(4-fluoro-1-isopropyl-2-methyl-1H-benzo[d]imidazol-6-yl)pyrimidin-2-yl)amino)pyridin-3-yl)methyl)piperidine-1-carbonyl)piperidin-1-yl)isoindoline-1,3-dione]?
IC50 [1, 5]: 50 to 200 nM; DC50 [2]: 50 to 200 nM; Dmax [2]: > 60%; DC50 [3]: > 200 nM; Dmax [3]: > 60%

`Cc1nc2c(F)cc(-c3nc(Nc4ccc(CC5CCN(C(=O)C6CCN(c7ccc8c(c7)CN(C7CCC(=O)NC7=O)C8=O)CC6)CC5)cn4)ncc3F)cc2n1C(C)C` (stereo not shown) [Compound 162, 3-(5-(4-(4-((6-((5-fluoro-4-(4-fluoro-1-isopropyl-2-methyl-1H-benzo[d]imnidazol-6-yl)pyrimidin-2-yl)amino)pyridin-3-yl)methyl)piperidine-1-carbonyl)piperidin-1-yl)-1-oxoisoindolin-2-yl)piperidine-2,6-dione] was tested. Which IC50 [1, 5] did it give?
The IC50 was 50 to 200 nM.

And the DC50 [2]?
The DC50 was 50 to 200 nM.

And the Dmax [2]?
Its Dmax is greater than 60%.

What about the DC50 [3] of the same molecule?
Its DC50 is greater than 200 nM.

What about the Dmax [3] of the same molecule?
The Dmax was greater than 60%.

Which IC50 [1, 5] does the source give for `Cc1nc2c(F)cc(-c3nc(Nc4ccc(CC5CCN(C(=O)C6CCN(c7ccc(NC8CCC(=O)NC8=O)cc7)CC6)CC5)cn4)ncc3F)cc2n1C(C)C` (stereo not shown) [Compound 164, 3-((4-(4-(4-((6-((5-fluoro-4-(4-fluoro-1-isopropyl-2-methyl-1H-benzo[d]imidazol-6-yl)pyrimidin-2-yl)amino)pyridin-3-yl)methyl)piperidine-1-carbonyl)piperidin-1-yl)phenyl)amino) piperidine-2,6-dione] here?
Its IC50 is 50 to 200 nM.

What about the DC50 [2] of the same molecule?
The DC50 was 50 to 200 nM.

What about the Dmax [2] of the same molecule?
Its Dmax is greater than 60%.

And the DC50 [3]?
The DC50 was 50 to 200 nM.

And the Dmax [3]?
Its Dmax is greater than 80%.

What does the source list for `Cc1nc2c(F)cc(-c3nc(Nc4ccc(CN5CCN(C6CCN(c7ccc8c(c7)C(=O)N(C7CCC(=O)NC7=O)C8=O)CC6)CC5)cn4)ncc3F)cc2n1C(C)C` (stereo not shown) [Compound 165, 2-(2,6-dioxopiperidin-3-yl)-5-(4-(4-((6-((5-fluoro-4-(4-fluoro-1-isopropyl-2-methyl-1H-benzo[d]imidazol-6-yl)pyrimidin-2-yl)amino)pyridin-3-yl)methyl)piperazin-1-yl)piperidin-1-yl)isoindoline-1,3-dione]?
IC50 [1, 5]: < 50 nM; DC50 [2]: 50 to 200 nM; Dmax [2]: > 80%; DC50 [3]: 50 to 200 nM; Dmax [3]: > 80%

What does the source list for `Cc1nc2c(F)cc(-c3nc(Nc4ccc(CN5CCN(C6CCN(c7ccc8c(c7)CN(C7CCC(=O)NC7=O)C8=O)CC6)CC5)cn4)ncc3F)cc2n1C(C)C` (stereo not shown) [Compound 166, 3-(5-(4-(4-((6-((5-fluoro-4-(4-fluoro-1-isopropyl-2-methyl-1H-benzo[d]imidazol-6-yl)pyrimidin-2-yl)amino)pyridin-3-yl)methyl)piperazin-1-yl)piperidin-1-yl)-1-oxoisoindolin-2-yl)piperidine-2,6-dione]?
IC50 [1, 5]: < 50 nM; DC50 [2]: 50 to 200 nM; Dmax [2]: > 80%; DC50 [3]: 50 to 200 nM; Dmax [3]: > 60%

Which results are given for `Cc1nc2c(F)cc(-c3nc(Nc4ccc(CN5CCN(C6CCN(c7ccc(C(=O)NC8CCC(=O)NC8=O)cc7)CC6)CC5)cn4)ncc3F)cc2n1C(C)C` (stereo not shown) [Compound 167, N-(2,6-dioxopiperidin-3-yl)-4-(4-(4-((6-((5-fluoro-4-(4-fluoro-1-isopropyl-2-methyl-1H-benzo[d]imidazol-6-yl)pyrimidin-2-yl)amino)pyridin-3-yl)methyl)piperazin-1-yl)piperidin-1-yl)benzamide]?
IC50 ([1]; mantle cell lymphoma cell (Mino or JeKo-1); MTS assay, 72 h; read-out: IC50 (anti-proliferation)): 50 to 200 nM; DC50 [2]: 50 to 200 nM; Dmax CDK4 [2]: B (B: >60%); DC50 [3]: 50 to 200 nM; Dmax CDK6 [3]: B (B: >60%)

Which results are given for `Cc1nc2c(F)cc(-c3nc(Nc4ccc(CN5CCN(C6CCN(c7ccc(NC8CCC(=O)NC8=O)cc7)CC6)CC5)cn4)ncc3F)cc2n1C(C)C` (stereo not shown) [Compound 168, 3-((4-(4-(4-((6-((5-fluoro-4-(4-fluoro-1-isopropyl-2-methyl-1H-benzo[d]imidazol-6-yl)pyrimidin-2-yl)amino)pyridin-3-yl)methyl)piperazin-1-yl)piperidin-1-yl)phenyl)amino) piperidine-2,6-dione]?
IC50 [1, 5]: < 50 nM; DC50 [2]: 50 to 200 nM; Dmax [2]: > 80%; DC50 [3]: < 50 nM; Dmax [3]: > 80%

What does the source list for `Cc1nc2c(F)cc(-c3nc(Nc4ccc(CC5CCN(C6CCN(c7ccc8c(c7)C(=O)N(C7CCC(=O)NC7=O)C8=O)CC6)CC5)cn4)ncc3F)cc2n1C(C)C` (stereo not shown) [Compound 169, 2-(2,6-dioxopiperidin-3-yl)-5-(4-((6-((5-fluoro-4-(4-fluoro-1-isopropyl-2-methyl-1H-benzo[d]imidazol-6-yl)pyrimidin-2-yl)amino)pyridin-3-yl)methyl)-[1,4′-bipiperidin]-1′-yl)isoindoline-1,3-dione]?
IC50 [1, 5]: < 50 nM; DC50 [2]: 50 to 200 nM; Dmax [2]: > 80%; DC50 [3]: 50 to 200 nM; Dmax [3]: > 80%

What does the source list for `Cc1nc2c(F)cc(-c3nc(Nc4ccc(CC5CCN(C6CCN(c7ccc8c(c7)CN(C7CCC(=O)NC7=O)C8=O)CC6)CC5)cn4)ncc3F)cc2n1C(C)C` (stereo not shown) [Compound 170, 3-(5-(4-((6-((5-fluoro-4-(4-fluoro-1-isopropyl-2-methyl-1H-benzo[d]imidazol-6-yl)pyrimidin-2-yl)amino)pyridin-3-yl)methyl)-[1,4′-bipiperidin]-1′-yl)-1-oxoisoindolin-2-yl)piperidine-2,6-dione]?
IC50 [1, 5]: < 50 nM; DC50 [2]: < 50 nM; Dmax [2]: > 80%; DC50 [3]: < 50 nM; Dmax [3]: > 60%

With `Cc1nc2c(F)cc(-c3nc(Nc4ccc(CC5CCN(C6CCN(c7ccc(C(=O)NC8CCC(=O)NC8=O)cc7)CC6)CC5)cn4)ncc3F)cc2n1C(C)C` (stereo not shown) [Compound 171, N-(2,6-dioxopiperidin-3-yl)-4-(4-((6-((5-fluoro-4-(4-fluoro-1-isopropyl-2-methyl-1H-benzo[d]imidazol-6-yl)pyrimidin-2-yl)amino)pyridin-3-yl)methyl)-[1,4′-bipiperidin]-1′-yl) benzamide] as the molecule, how does the IC50 [1, 5] read?
The IC50 was 50 to 200 nM.

What about the DC50 [2] of the same molecule?
The DC50 was 50 to 200 nM.

What about the Dmax [2] of the same molecule?
Its Dmax is greater than 60%.

What about the DC50 [3] of the same molecule?
The DC50 was 50 to 200 nM.

What about the Dmax [3] of the same molecule?
Its Dmax is greater than 60%.

`Cc1nc2c(F)cc(-c3nc(Nc4ccc(CC5CCN(C6CCN(c7ccc(NC8CCC(=O)NC8=O)cc7)CC6)CC5)cn4)ncc3F)cc2n1C(C)C` (stereo not shown) [Compound 172, 3-((4-(4-((6-((5-fluoro-4-(4-fluoro-1-isopropyl-2-methyl-1H-benzo[d]imidazol-6-yl)pyrimidin-2-yl)amino)pyridin-3-yl)methyl)-[1,4′-bipiperidin]-1′-yl)phenyl)amino) piperidine-2,6-dione] was tested. Which IC50 [1, 5] did it give?
Its IC50 is less than 50 nM.

What about the DC50 [2] of the same molecule?
Its DC50 is 50 to 200 nM.

And the Dmax [2]?
Its Dmax is greater than 80%.

And the DC50 [3]?
Its DC50 is 50 to 200 nM.

And the Dmax [3]?
Its Dmax is greater than 80%.
